From the NIST ThermoML archive (doi:10.1016/j.jct.2008.09.002)

What was measured:
[1] = excess molar enthalpy (molar enthalpy of mixing); xn = mol fraction of the nth substance listed; settings: 303.15 K, 101.3 kPa, Liquid, Calvet calorimetry
[2] = molar heat capacity at constant pressure; xn = mol fraction of the nth substance listed; settings: 101.3 kPa, Liquid, Small sample (50 mg) DSC
[3] = xn = mol fraction of the nth substance listed; settings: 293.15 K, 101.3 kPa, Liquid, Vibrating tube method

CCCCCCn1cc[n+](C)c1.F[B-](F)(F)F [1-hexyl-3-methylimidazolium tetrafluoroborate] + C[N+](=O)[O-]
Settings | excess molar enthalpy [kcal/mol] | mass density [kg/m3]
[1], x1 = 0.1 | -0.0174 | –
[1], x1 = 0.2074 | -0.0296 | –
[1], x1 = 0.3028 | -0.0349 | –
[1], x1 = 0.4096 | -0.0382 | –
[1], x1 = 0.5095 | -0.038 | –
[1], x1 = 0.6072 | -0.0342 | –
[1], x1 = 0.7148 | -0.027 | –
[1], x1 = 0.7891 | -0.0225 | –
[1], x1 = 0.8821 | -0.012 | –
[3], x1 = 0.098 | – | 1148.7
[3], x1 = 0.1933 | – | 1150.7
[3], x1 = 0.3062 | – | 1151.2
[3], x1 = 0.3988 | – | 1151.1
[3], x1 = 0.4936 | – | 1150.9
[3], x1 = 0.5941 | – | 1150.5
[3], x1 = 0.5973 | – | 1150.5
[3], x1 = 0.6839 | – | 1150.1
[3], x1 = 0.6917 | – | 1150
[3], x1 = 0.7702 | – | 1149.8
[3], x1 = 0.7767 | – | 1149.7
[3], x1 = 0.786 | – | 1149.6
[3], x1 = 0.8514 | – | 1149.3

molar heat capacity at constant pressure [J/K/mol], [2]
Settings | x1 = 0.098 | x1 = 0.1933 | x1 = 0.3062 | x1 = 0.3988 | x1 = 0.4936 | x1 = 0.5941 | x1 = 0.6917 | x1 = 0.7702 | x1 = 0.8665
293.15 K | 136.3 | 166.4 | 202.6 | 232.4 | 262.8 | 295.4 | 326.6 | 351.4 | 382.6
298.15 K | 136.7 | 167 | 203.5 | 233.4 | 264 | 296.8 | 328.3 | 353.4 | 384.8
303.15 K | 137.2 | 167.7 | 204.4 | 234.5 | 265.4 | 298.3 | 330 | 355.4 | 387
308.15 K | 137.7 | 168.4 | 205.3 | 235.6 | 266.7 | 299.8 | 331.7 | 357.3 | 389.1
313.15 K | 138.3 | 169.2 | 206.3 | 236.9 | 268.2 | 301.3 | 333.4 | 359.2 | 391.3
318.15 K | 138.8 | 169.9 | 207.3 | 238.1 | 269.6 | 302.8 | 335 | 361.1 | 393.4
